According to patent publication US8703812B2, “Protein synthesis required for long-term memory is induced by PKC activation on days preceding associative learning” (Blanchette Rockefeller Neurosciences Institute, priority 2005, dated 2014):

Columns and labels:
[1] = test system: Hermissenda Crassicornis; experiment: Pavlovian conditioning of Hermissenda (retention of conditioned response); assay type: in vivo; conditions: for effect on bryostatin memory enhancement: 6 TE with bryostatin; for effect on long-term retention: anisomycin 1 μg/ml for four hours post-training (2 TE) after three-day bryostatin treatment
Procedure: Bryostatin exposure—Specimens of Hermissenda Crassicornis were maintained in artificial sea water (ASW) at 15° for three days in perforated 50-ml conical centrifuge tubes before starting experiments. Bryostatin, purified from the marine bryozoan Bugula neritina, was dissolved in EtOH and diluted to its final concentration in ASW. […] For selected experiments lactacysteine (10 μM) or anisomycin was added to the ASW.
Bryostatin effects on Hermissenda behavior and biochemistry were produced by adding the drug to the bathing medium within an 8 cm long, 1 cm diameter test tube housing each individual animal.
Pavlovian conditioning of Hermissenda involves repeated pairings of a neutral stimulus, light, with an unconditioned stimulus, orbital shaking. (See, Lederhendler et al. (24) and Epstein et al. (6)). A rotation/shaking stimulus excites the statocyst hair cells and thereby elicits an unconditioned response: a brisk contraction of the muscular undersurface called a foot, accompanied by adherence or “clinging” to the surface that supports the foot. Before conditioning, light elicits a weakly positive phototaxis accompanied by lengthening of the foot. After sufficient light-rotation pairings, light no longer elicits phototaxis, but instead elicits a new response (24): the “clinging” and foot shortening previously elicited only by the unconditional stimulus (FIG. 1). Thus, the meaning of the unconditioned stimulus, rotation or orbital shaking, has been transferred to the conditioned stimulus and is manifested by a light-elicited foot contraction—a negative change of foot length. This conditioned response to light can last for weeks, is not produced by randomized light and rotation, is stimulus-specific, and shares the other defining characteristics of mammalian Pavlovian Conditioning.
Pavlovian conditioning of Hermissenda has well-defined training parameters that produce progressively longer-lasting retention of the learned conditioned response. Two training events (2 TE) of paired light and orbital shaking (see “Methods”), for example, induce a learned conditioned response (light-elicited foot contraction or shortening) that persists without drug treatment for approximately 7 minutes. Four to six training events (4-6 TE) induce a conditioned response that persists up to several hours, but disappears approximately by 1 day after training. Nine TE produces long-term associative memory lasting many days and often up to two weeks.

[2] = test system: PKC; experiment: Protein kinase C assay (histone phosphorylation) in Hermissenda nervous systems; assay type: in vivo; conditions: anisomycin (1.0 ng/ml) with each bryostatin (0.25 ng/ml) exposure on three successive days
Procedure: Bryostatin exposure—Specimens of Hermissenda Crassicornis were maintained in artificial sea water (ASW) at 15° for three days in perforated 50-ml conical centrifuge tubes before starting experiments. Bryostatin, purified from the marine bryozoan Bugula neritina, was dissolved in EtOH and diluted to its final concentration in ASW. Animals were incubated with bryostatin in ASW for 4 hr, then rinsed with normal ASW. For selected experiments lactacysteine (10 μM) or anisomycin was added to the ASW.
Cells were homogenized by sonication (5 sec, 25 W) in 100 μl of 10 mM Tris-HCl pH 7.4 buffer containing 1 mM EGTA, 1 mM PMSF, and 50 mM NaF. Homogenate was transferred to a polyallomer centrifuge tube and was centrifuged at 100,000×g for 10 min at 4°. The supernatant was removed and immediately frozen on dry ice. The particulate fraction was resuspended by sonication in 100 μl of the same buffer and stored at −80°. To measure PKC, 10 μl of cytosol or particulate fraction was incubated for 15 min at 37° in the presence of 10 μM histones, 4.89 mM CaCl2, 1.2 μg/μl phosphatidyl-L-serine, 0.18 μg/μl 1,2-dioctanoyl-sn-glycerol, 10 mM MgCl2, 20 mM HEPES (pH 7.4), 0-8 mM EDTA, 4 mM EGTA, 4% glycerol, 8 μg/ml aprotinin, 8 μg/ml leupeptin, and 2 mM benzamidine. 0.5 μCi [γ^32P]ATP was added and ^32P-phosphoprotein formation was measured by adsorption onto phosphocellulose as described previously (25). This assay was used with slight adjustments for either Hermissenda nervous system homogenates or cultured mammalian neuron homogenates
Intact Hermissenda were exposed for 4 hour intervals to bryostatin (0.28 nM) on successive days under conditions described (“Behavioral Pharmacology”). Histone phosphorylation (See “Methods”) in isolated circumesophageal nervous systems was then measured in the cytosol fraction. […] (FIG. 12, 13). […] After an initial activation (via translocation), this bryostatin effect is most likely due to increased synthesis of PKC, consistent with the increased levels of calexcitin induced by bryostatin, but not directly correlated with repeated bryostatin exposure.

[3] = test system: calexcitin; experiment: Calexcitin immunostaining in B-photoreceptors; assay type: in vivo, Hermissenda
Procedure: Following experimental treatments and testing, animals were rapidly decapitated, the central nervous systems (CNS) removed and then fixed in 4% para-formaldehyde in 20 mM Tris-buffered (pH 8) natural seawater (NSW; 0.2 μm micropore-filtered). The CNSs were then embedded in polyester wax (20), sectioned (6 μm) and immunostained using a biotinylated secondary antibody coupled to avidin-bound microperoxidase (ABC method, Vector), Aminoethylcarbazole (AEC) was used as the chromogen. The primary polyclonal antibody (designated 25U2) was raised in rabbits from the full length calexcitin protein extracted from squid optic lobes. Gray-scale intensity measures were done from digital photomicrographs on circumscribed cytoplasmic areas of the B-photoreceptors minus the same background area (non-staining neuropile).

[4] = test system: sAPP secretion; conditions: cited from earlier work
[5] = vitamin E 2000 IU/day; cited from earlier work
[6] = test system: diacylglycerol-protein kinase C activation; conditions: aorta of diabetic rats; cultured rat smooth muscle cells, elevated glucose; cited from earlier work
[7] = test system: Rat hippocampal H19-7/IGF-IR cells; experiment: Protein synthesis by [35S]Methionine incorporation; assay type: cell-based; conditions: PKC inhibitor Ro-32 also present
Procedure: FIG. 17 depicts the effects of bryostatin on protein synthesis. Rat IGF-IR cells were incubated for 30 minutes with 0.28 nM bryostatin for incubation times ranging from 1 to 79 hours. [^35S]Methionine (9.1 μCi) was then added to the medium followed by analysis of radiolabel.
Rat hippocampal H19-7/IGF-IR cells (ATCC) were plated onto poly-L-lysine coated plates and grown at 35° in DMEM/10% FCS for several days until approx. 50% coverage was obtained. The cells were then induced to differentiate into a neuronal phenotype by replacing the medium with 5 ml N2 medium containing 10 ng/ml basic fibroblast growth factor and grown in T-25 flasks at 39° C. (26). Various concentrations of bryostatin (0.01-1.0 nM) were then added in 10 μl aqueous solution. After a specified interval, the medium was removed and the cells were washed with PBS, removed by gentle scraping, and collected by centrifugation at 1000 rpm for 5 min.
In fact, we found here that a single 30-minute exposure to 0.28 nM bryostatin increased overall protein synthesis (FIG. 17), measured by incorporation of ^35-S Methionine in the last ½ hour before collecting the neurons, by 20% within 24 h, increasing to 60% by 79 hours after the bryostatin exposure.

[8] = test system: PKC-α; conditions: 20 μM-5 QμM Lactacysteine; cited from earlier work

## COc1ccc(C[C@H]2NC[C@H](O)[C@H]2OC(C)=O)cc1 [anisomycin]
[1]
  effect on bryostatin memory enhancement: blocked
  effect on long-term retention: did not prevent memory retention
[1]; 4 hour anisomycin treatment, no bryostatin
  effect on memory retention produced by 9 TE: eliminated all memory retention
[1]; listed as Anisomycin
  effect on long-term retention: did not prevent long-term retention
[1]; anisomycin 1.0 μg/ml immediately post-training, tested after 4 h
  effect on retention produced by single 4-hour bryostatin plus 2 TE: showed no CR
[1]; anisomycin after training with and without bryostatin
  effect on memory formation: completely blocked memory formation
[1]; anisomycin during training with and without bryostatin
  effect on long-term memory: did not prevent long-term memory
[1]; anisomycin with each of three successive daily 4 hour bryostatin exposures, 2 TE one day after
  effect on long-term memory: long-term memory was eliminated
[2]
  effect on PKC activity, cytosolic and membrane fractions: markedly reduced the PKC activity
[3]; anisomycin immediately after 2-paired TEs following 3 days of 4-hr bryostatin
  effect on calexcitin level: did not reduce this calexcitin level

## CN[C@@H]1C[C@H]2O[C@@](C)([C@@H]1OC)n1c3ccccc3c3c4c(c5c6ccccc6n2c5c31)C(=O)NC4 [staurosporine]
[4]; control and AD fibroblasts
  effect on benzolactam-induced sAPP secretion: eliminated the effects of benzolactam

## vitamin E
[5]
  clinical outcome: reduced mortality and morbidity, but did not enhance cognitive abilities
[6]
  diacylglycerol-protein kinase C activation: normalize diacylglycerol-protein kinase C activation

## benzolactam
[4]; benzolactam-treated cells
  sAPP secretion: enhance sAPP secretion over basal levels
[4]; control fibroblasts
  concentration giving significant increases of sAPP secretion: 10 µM

## CN(C)C[C@H]1CCn2c(c(C3=C(c4cn(C)c5ccccc45)C(=O)NC3=O)c3ccccc32)C1 [Ro-32]
[7]
  effect on bryostatin-induced increase of protein synthesis: partially blocked
[7]; listed as Ro-32-0432
  effect on bryostatin-induced increase of protein synthesis: increasing significantly less
[1]
  effect on bryostatin memory enhancement: blocked
[1]; Ro-32 applied pre-training (during dark adaptation)
  effect on 6 TE plus bryostatin conditioning: blocked
[1]; Ro-32 during the training plus bryostatin
  effect on memory consolidation: did prevent memory consolidation
[1]; Ro-32 immediately after bryostatin plus training
  effect on long-term memory induction: did not prevent long-term memory induction
[3]; Ro-32
  effect on learning-specific calexcitin increases in Type B cell: prevented both learning and learning-specific calexcitin increases

## CC(=O)N[C@@H](CSC(=O)[C@]1([C@@H](O)C(C)C)NC(=O)[C@H](C)[C@@H]1O)C(=O)O [Lactacysteine]
[8]
  degradation of PKC-α: largely prevented
[1]; lactacysteine only 10 μM 4 h, 2-paired TEs 24 hrs later
  acquisition or retention of behavioral training: no acquisition or retention of behavioral training
[1]; with lactacysteine
  duration of memory after single bryostatin exposure followed by 2 TE: many days
